Source: US5220008A, “Oligosaccharide inhibitors for influenza virus” (priority 1991, dated 1993)

What follows are compounds tested on influenza virus (A/Aichi/2/68) (assay: Inhibition of Influenza Virus Adsorbtion to Erythrocytes (hemagglutination of resialylated human erythrocytes)). Conditions: relative to Me αDNeuAc = 1.0 (Table 8).
Description: The heptasaccharides can be evaluated as inhibitors of the influenza virus hemagglutination of the resialylated human erythrocytes.
^a Inhibition of influenza virus (A/Aichi/2/68) to resialylated

| SMILES | Relative Potency |
| --- | --- |
| COC(=O)CCCCCOC1OC(CO)C(OC2OC(CO)C(OC3OC(CO)C(O)C(O)C3O)C(O)C2NC(C)=O)C(O)C1OC1OC(CO)C(OC2OC(COC3(C(=O)O)CC(O)C(NC(C)=O)C(C(O)C(O)CO)O3)C(O)C(O)C2O)C(O)C1NC(C)=O [Example 28A, 5-(methoxycarbonyl)pentyl 2-O-[5-acetamido-3,5-dideoxy-D-glycero-D-galactononulopyranosylonic acid (2→6)-β-D-galactopyranosyl-(1→4)-2-acetamido-2-deoxy-D-glycopyranosyl]-4-O-[β-D-galactopyranosyl-(1→4)-2-acetamido-2-deoxy-D-glucopyranosyl]-β-D-galactopyranoside] | 1.9 |
| COC(=O)CCCCCOC1OC(COC2OC(CO)C(OC3OC(COC4(C(=O)O)CC(O)C(NC(C)=O)C(C(O)C(O)CO)O4)C(O)C(O)C3O)C(O)C2NC(C)=O)C(O)C(OC2OC(CO)C(OC3OC(COC4(C(=O)O)CC(O)C(NC(C)=O)C(C(O)C(O)CO)O4)C(O)C(O)C3O)C(O)C2NC(C)=O)C1O [Example 30, 5-(Methoxycarbonyl)pentyl 3,6-di-O-{5-acetamido-3,5-dideoxy-D-glycero-D-galacto-2-nanulopyranosylonic acid(2→6)-β-galactopyranosyl(1→4)-2-acetamido-2-deoxy-β-D-glucopyranosyl}-β-D-galactopyranoside] | 8.4 |
| COC(=O)CCCCCOC1OC(CO)C(OC2OC(CO)C(OC3OC(COC4(C(=O)O)CC(O)C(NC(C)=O)C(C(O)C(O)CO)O4)C(O)C(O)C3O)C(O)C2NC(C)=O)C(O)C1OC1OC(CO)C(OC2OC(COC3(C(=O)O)CC(O)C(NC(C)=O)C(C(O)C(O)CO)O3)C(O)C(O)C2O)C(O)C1NC(C)=O [Example 28, 5-(Methoxycarbonyl)pentyl 2,4-di-O-{5-acetamido-3,5-dideoxy-D-glycero-D-galacto-2-nanulopyranosylonic acid(2→6)-β-D-galactopyranosyl(1→4)-2--acetamido-2-deoxy-β-D-glucopyranosyl}-β-D-galactopyranoside] | 1.5 |
| COC(=O)CCCCCOC1OC(CO)C(O)C(OC2OC(CO)C(OC3OC(COC4(C(=O)O)CC(O)C(NC(C)=O)C(C(O)C(O)CO)O4)C(O)C(O)C3O)C(O)C2NC(C)=O)C1OC1OC(CO)C(OC2OC(COC3(C(=O)O)CC(O)C(NC(C)=O)C(C(O)C(O)CO)O3)C(O)C(O)C2O)C(O)C1NC(C)=O [Example 27, 5-(Methoxycarbonyl)pentyl 2,3-di-O-{5-acetamido-3,5-dideoxy-D-glycero-D-galacto-2-nanulopyranosylonic acid(2→6)-β-D-galactopyranosyl(1→4)-2-acetamido-2-deoxy-β-D-glucopyranosyl}-β-D-galactopyranoside] | 7.2 |
